These are literature values, as cited in US20240182910A1, “DRUG-REGULATABLE TRANSCRIPTION FACTORS” (Senti Biosciences, Inc., priority 2021, published 2024).

What all share (design): key to Response to inducer: T (transgene transcription): A, activation; DA, deactivation; DR, derepression; key to Response to inducer: TF (transcription factor): B, binding; D, dissociation
For one data set, the target named is NT (HdnoR-VP16) (Paenarthrobacter nicotinovorans, UniProt Q8GAF9). Particulars: NICE-OFF; PNIC (ONIC-PhCMVmin); cited from earlier work.
NT (HdnoR-VP16), sequence (Q8GAF9 whole entry, added parts left off): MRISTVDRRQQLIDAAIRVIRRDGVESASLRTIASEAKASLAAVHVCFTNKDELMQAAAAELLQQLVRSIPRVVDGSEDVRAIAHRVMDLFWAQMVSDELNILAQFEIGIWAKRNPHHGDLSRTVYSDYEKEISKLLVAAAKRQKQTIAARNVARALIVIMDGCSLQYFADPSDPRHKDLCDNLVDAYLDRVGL
A further data set deals with NS (HdnoR-KRAB). The following applies: NICE-ON; PNIC (PSV40-ONIC8); cited from earlier work.
Another data set addresses BIT (BirA-VP16) (Escherichia coli, UniProt P06709). Particulars: PBIT3 (OBirA3-PhCMVmin); cited from earlier work.
For the next data set, the system named is ArgR-VP16. Particulars: ART; PART (OARG-PhCMVmin); cited from earlier work.
The next data set relates to p65-TraR. The following applies: O7x(tra box)-PhCMVmin; cited from earlier work.
The test system of the next data set is rcTA (rCymR-VP16). Particulars: Cumate - reverse activator; PCR5 (OCuO6-PhCMVmin); cited from earlier work.
In another data set the target is CymR (Pseudomonas putida, UniProt O33453). Particulars: Cumate - repressor; PCuO (PCMV5-OCuO); cited from earlier work.
CymR, sequence (O33453 whole entry): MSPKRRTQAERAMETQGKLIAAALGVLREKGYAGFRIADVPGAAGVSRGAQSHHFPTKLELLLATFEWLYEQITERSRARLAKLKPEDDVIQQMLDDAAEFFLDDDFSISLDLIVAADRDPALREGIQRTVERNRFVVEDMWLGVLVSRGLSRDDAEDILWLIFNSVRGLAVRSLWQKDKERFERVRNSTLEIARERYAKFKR
The test system of another data set is cTA (CymR-VP16). Particulars: Cumate - activator; PCR5 (OCuO6-PhCMVmin); cited from earlier work.
In another data set the test system is tTAPIT3E-KRAB. Particulars: TET-OFFPIP-ONE-ON; OtetO7-OPIR3-OETR8-PhCMVmin; cited from earlier work.
The test system of a further data set is SCAE-KRAB. Particulars: QuoRexE-ON (NOT IF gate); OscbR-OETR8-PhCMVmin; cited from earlier work.
Another data set relates to ET (E-VP16). The following applies: E-OFF; PETR (OETR-PhCMVmin); cited from earlier work.
For a further data set, the system named is tTAE-KRAB. Particulars: TET-OFFE-ON (NOT IF gate); OtetO7-OETR8-PhCMVmin; cited from earlier work.
The next data set concerns E-KRAB. Particulars: E-ON; PETRON8 (PSV40-OETR8); cited from earlier work.
The next data set deals with REDOX (REX-VP16) (Streptomyces coelicolor, UniProt Q9WX14). Particulars: PROP (OROP-PhCMVmin); cited from earlier work.
REDOX (REX-VP16), sequence (Q9WX14 whole entry, added parts left off): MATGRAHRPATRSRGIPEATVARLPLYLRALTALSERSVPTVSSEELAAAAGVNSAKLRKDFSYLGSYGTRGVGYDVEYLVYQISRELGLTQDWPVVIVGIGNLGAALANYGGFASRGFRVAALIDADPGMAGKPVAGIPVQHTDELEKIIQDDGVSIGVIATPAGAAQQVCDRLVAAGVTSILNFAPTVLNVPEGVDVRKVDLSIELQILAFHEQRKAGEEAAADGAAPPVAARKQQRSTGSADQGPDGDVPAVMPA
The target of a further data set is TtgA1 (TtgR-VP16) (Pseudomonas putida, UniProt Q9AIU0). The following applies: PEACE; PTtgR1 (OTtgR-PhCMVmin); cited from earlier work.
TtgA1 (TtgR-VP16), sequence (Q9AIU0 whole entry, added parts left off): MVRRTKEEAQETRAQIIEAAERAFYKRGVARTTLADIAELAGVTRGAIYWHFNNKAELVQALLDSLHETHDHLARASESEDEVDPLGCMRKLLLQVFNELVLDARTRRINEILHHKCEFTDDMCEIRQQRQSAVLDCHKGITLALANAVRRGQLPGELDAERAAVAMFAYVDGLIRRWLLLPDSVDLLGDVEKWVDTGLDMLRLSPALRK
The test system of the next data set is SCAPIT3. The following applies: QuoRexPIP-ON (NOT IF gate); OscbR8-OPIR3-PhCMVmin; cited from earlier work.
A further data set concerns SCA (ScbR-VP16). The following applies: QuoRex; PSCA (OscbR-PhCMVmin)PSPA (OpapRI-PhCMVmin); cited from earlier work.
The test system of another data set is SCS (ScbR-KRAB). Particulars: Q-ON; PSCAON8 (PSV40-OscbR8); cited from earlier work.
The next data set relates to mUTS (KRAB-HucR). The following applies: UREX; PUREX8 (PSV40-OhucO8); cited from earlier work.
The subject of another data set is VanA4 (VanR-KRAB). Particulars: VAC-ON; PVanON8 (PhCMV-OVanO8); cited from earlier work.
Another data set concerns VanA1 (VanR-VP16). The following applies: VAC-OFF; P1VanO2 (OVanO2-PhCMVmin); cited from earlier work.
A further data set deals with PIT (PIP-VP16). Particulars: PIP-OFF; PPIR (OPIR-Phsp70 min); cited from earlier work.
In the next data set the test system is PIT3 (PIP-KRAB). Particulars: PIP-ON; PPIRON (PSV40-OPIR3); cited from earlier work.

BIT (BirA-VP16), sequence (P06709 whole entry, added parts left off): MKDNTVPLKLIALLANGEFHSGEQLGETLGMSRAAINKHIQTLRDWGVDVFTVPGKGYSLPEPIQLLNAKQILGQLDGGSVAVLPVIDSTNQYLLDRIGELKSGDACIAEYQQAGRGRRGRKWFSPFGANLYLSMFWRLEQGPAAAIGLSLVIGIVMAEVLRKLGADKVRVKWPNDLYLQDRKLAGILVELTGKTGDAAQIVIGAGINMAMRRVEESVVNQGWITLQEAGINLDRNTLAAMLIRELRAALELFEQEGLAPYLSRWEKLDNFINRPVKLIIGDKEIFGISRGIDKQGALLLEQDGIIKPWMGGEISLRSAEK

With `CN1CCCC1c1ccc(O)nc1` (stereo not shown) [6-Hydroxy-nicotine], the “Response to inducer: T (transgene transcription)” value is “DA” on NT (HdnoR-VP16) and “DR” with NS (HdnoR-KRAB). For the same compound, the “Response to inducer: TF (transcription factor)” value (“Response to inducer: TF” below) on NT (HdnoR-VP16) and with NS (HdnoR-KRAB) was “D” throughout.

Take `O=C(O)CCCC[C@@H]1SC[C@@H]2NC(=O)N[C@@H]21` [Biotin]: on BIT (BirA-VP16), the “Response to inducer: T (transgene transcription)” value was “A” and the “Response to inducer: TF” value was “B”.

`N=C(N)NCCC[C@H](N)C(=O)O` [Construct 1-Arginine, 1-Arginine]: in the data set on ArgR-VP16, the “Response to inducer: T (transgene transcription)” value was “A” and the “Response to inducer: TF” value is on record as “B”.

Consider `CCCCCC(=O)CC(=O)N[C@H]1CCOC1=O` [Construct 3-Oxo-C8-HSL, 3-Oxo-C8-HSL], for which, in the data set with p65-TraR, the “Response to inducer: T (transgene transcription)” value is recorded as “A” and the “Response to inducer: TF” value is recorded as “B”.

Take `CC(C)c1ccc(C(=O)O)cc1` [Cumate]: the “Response to inducer: T (transgene transcription)” value in the data set with rcTA (rCymR-VP16) was “A”; at CymR, “DR”; in the data set on cTA (CymR-VP16), “DA”. For the same compound, the “Response to inducer: TF” value in the data set on rcTA (rCymR-VP16) is “B”; at CymR it was “D”; in the data set on cTA (CymR-VP16), “D”.

As to `CC[C@H]1OC(=O)[C@H](C)[C@@H](O[C@H]2C[C@@](C)(OC)[C@@H](O)[C@H](C)O2)[C@H](C)[C@@H](O[C@@H]2O[C@H](C)C[C@H](N(C)C)[C@H]2O)[C@](C)(O)C[C@@H](C)C(=O)[C@H](C)[C@@H](O)[C@]1(C)O` [Erythromycin], the “Response to inducer: T (transgene transcription)” value is reported as “DR” in the data set with tTAPIT3E-KRAB; “DR” in the data set on SCAE-KRAB; “DA” with ET (E-VP16); “DR” with tTAE-KRAB; “DR” with E-KRAB. The “Response to inducer: TF” value in the data set with tTAPIT3E-KRAB, in the data set with SCAE-KRAB, with ET (E-VP16), with tTAE-KRAB and in the data set on E-KRAB was “D” throughout.

Turning to `NC(=O)C1=CN([C@@H]2O[C@H](COP(=O)(O)OP(=O)(O)OC[C@H]3O[C@@H](n4cnc5c(N)ncnc54)[C@H](O)[C@@H]3O)[C@@H](O)[C@H]2O)C=CC1` [NADH], on REDOX (REX-VP16), the “Response to inducer: T (transgene transcription)” value was “DA” and the “Response to inducer: TF” value is recorded as “D”.

Take `O=C(CCc1ccc(O)cc1)c1c(O)cc(O)cc1O` [Phloretin]: on TtgA1 (TtgR-VP16), the “Response to inducer: T (transgene transcription)” value was “DA” and the “Response to inducer: TF” value is reported as “D”.

In the case of `CC(C)CCCC[C@@H](O)[C@@H]1C(=O)OC[C@H]1CO` [SCB1], the “Response to inducer: T (transgene transcription)” value is given as “DA” with SCAPIT3, “DA” in the data set on SCAE-KRAB, “DA” with SCA (ScbR-VP16) and “DR” with SCS (ScbR-KRAB). The “Response to inducer: TF” value in the data set with SCAPIT3, in the data set with SCAE-KRAB, with SCA (ScbR-VP16) and in the data set with SCS (ScbR-KRAB) was “D” each time.

Regarding `O=c1[nH]c(=O)c2[nH]c(=O)[nH]c2[nH]1` [Uric acid], in the data set with mUTS (KRAB-HucR), the “Response to inducer: T (transgene transcription)” value was “DR” and the “Response to inducer: TF” value was “D”.

Take `COc1cc(C(=O)O)ccc1O` [Vanillic acid]: the “Response to inducer: T (transgene transcription)” value with VanA4 (VanR-KRAB) is recorded as “DR”; with VanA1 (VanR-VP16), “DA”. In addition, the “Response to inducer: TF” value with VanA4 (VanR-KRAB) and in the data set with VanA1 (VanR-VP16) was “D” in each case.

On to Pristinamycin I, for which the “Response to inducer: T (transgene transcription)” value is “DR” with SCAPIT3, “DA” with PIT (PIP-VP16), “DR” with tTAPIT3E-KRAB and “DR” in the data set on PIT3 (PIP-KRAB). For the same compound, the “Response to inducer: TF” value in the data set with SCAPIT3, in the data set on PIT (PIP-VP16), with tTAPIT3E-KRAB and with PIT3 (PIP-KRAB) was “D” throughout.
